Reference: patent US10039828B2, “Compositions comprising salbutamol sulphate” (MEXICHEM AMANCO HOLDING S.A. DE C.V., priority 2011, dated 2018)

Assay: apparent surfactant dissolution (solubility) in propellant, viewed with the naked eye
Type: physicochemical
Settings: for Solubility of oleic acid in the propellant / Solubility of sorbitan monooleate in the propellant / Solubility of sorbitan trioleate in the propellant: ambient temperature (19.5-25.0° C.)
Experimental: A number of experiments were conducted to investigate the solubility of various surfactants in R-134a and R-152a. The apparent surfactant dissolution in each propellant was studied at ambient temperature (19.5-25.0° C.) by adding a known quantity of surfactant to a plastic-coated, pressure-resistant, clear glass aerosol bottle. A continuous flow valve was then crimped onto the bottle. A total of 10 grams of each propellant was filled into each aerosol bottle such that the surfactant concentration ranged from 0 to 5% w/w. After addition of propellant, the contents were sonicated for 10 mins and viewed with the naked eye for dissolution.

CCCCCCCC/C=C\CCCCCCCC(=O)O [oleic acid]
solubility in R-152a compared with R-134a (R-152a versus R-134a): much higher | solubility in R-152a compared with any other surfactant (R-152a, versus the other surfactants tested): much higher | Solubility of oleic acid in the propellant (propellant R-134a): Up to 0.05 % w/w | Solubility of oleic acid in the propellant (propellant R-152a): Up to 2.5 % w/w

sorbitan monooleate
Solubility of sorbitan monooleate in the propellant (propellant R-134a): Up to 0.03 % w/w | Solubility of sorbitan monooleate in the propellant (propellant R-152a): Up to 0.05 % w/w

sorbitan trioleate
Solubility of sorbitan trioleate in the propellant (propellant R-134a): Up to 0.05 % w/w | Solubility of sorbitan trioleate in the propellant (propellant R-152a): Up to 0.05 % w/w
